Experimental data from patent US9498495B2, “Methods for in vitro differentiation of TH-17+ cells” (New York University, priority 2008, dated 2016).

Columns and labels:
Type in all cases: cell-based, human
[1] = tested on: Naive cord blood CD4+ T cells; experiment: Th17 cell polarization of naive cord blood CD4+ T cells in serum-free media (intracellular and surface staining: IL-17, IL-22, FOXP3, CCR6); conditions: for suppression of TGF-β-induced FOXP3 expression: added to TGF-β
Experimental: Blood samples were obtained from the New York Blood Center. Mononuclear cells were prepared from buffy coats of healthy adult donors or from cord blood on FicollPAQUE gradients. CD4^+ T cells were isolated on an autoMACS Pro using Miltenyi bead depletion of CD14^+ and CD25^+ cells followed by positive selection of CD4^+ cells. […] Adult CD4^+ T cell subsets and naive cord blood CD4^+ T cells were further purified respectively as CD3^+CD4^+CD25^−CD45RO^−/+ and CD3^+CD4^+CD25^−HLA-DR^−CD45RA^+ by cell sorting on a FACSAria.
(§1) Cells were cultivated in either RPMI1640 (Invitrogen) supplemented with 10% fetal bovine serum (Hyclone), penicillin-streptomycin, 2 mM glutamine, 10 mM HEPES, 1 mM pyruvate and 0.1 mM non-essential amino acids or serum-free XVIVO-20 (Lonza) supplemented with penicillin-streptomycin in a 37° C. 5% CO2 incubator. CD4^+ T cells were stimulated by addition of anti-mouse IgG magnetic beads (Pierce) previously coated with purified anti-CD3 and anti-CD28 at final concentrations of 1 bead/cell and 1 μg/ml of each antibody. […] Lentiviral supernatants were added at an MOI ranging from 1 to 10. […] For the shRNA experiment, puromycin was added at day 2 at 2 μg/ml. For polarization experiments, cells were seeded at a concentration of 5×10^5 to 10^6 cells/ml in U-bottom 96 well plates with anti-CD3/CD28 coated beads. […] For long-term experiments, cells were split as needed. […] Cells were harvested at day 6 for intracellular staining and real-time PCR analysis except where specified otherwise.
For intracellular cytokine staining, cells were incubated for 5 hours with 50 ng/ml PMA (Sigma), 500 ng/ml Ionomycin (Sigma), and GolgiStop (BD). Surface staining was performed by incubation with the corresponding fluorescently labeled antibodies for 15 min on ice. Intracellular staining was performed using the Cytofix/Cytoperm buffer set (BD). Briefly, cells were fixed and permeabilized for 30 min at room temperature and stained in permeabilization buffer for 30 min at room temperature. Flow cytometric measures were performed on a LSR II (BD Biosciences) instrument and analyzed using FlowJo software (Tree Star Inc.). Antibodies are detailed in Table 1. FOXP3 was stained using FOXP3 staining buffers (eBioscience). The present inventors used the FJK-16s antibody, which was originally reported as an anti-mouse/rat FoxP3 antibody.

[2] = tested on: Cord blood CD4+ T cells transduced with RORγT; experiment: IL-17 and FOXP3 expression following RORγT transduction of cord blood CD4+ T cells (intracellular staining); conditions: for effect on the suppression of IL-17 production induced by TGF-β: RORγT-transduced cells, with TGF-β; for increase of the proportion of IL-17-producing cells after forced expression of RORγT: cytokine 10 ng/ml
RORC = RORC expression in CD45RO− adult naive CD4+ T cells cultivated with cytokines (real-time PCR); conditions: cytokine alone
Experimental: Blood samples were obtained from the New York Blood Center. Mononuclear cells were prepared from buffy coats of healthy adult donors or from cord blood on FicollPAQUE gradients. CD4^+ T cells were isolated on an autoMACS Pro using Miltenyi bead depletion of CD14^+ and CD25^+ cells followed by positive selection of CD4^+ cells. Cord blood CD4^+ T cells were >97% pure and 100% CD45RA^+ and were used as such for initial transduction experiments. Adult CD4^+ T cell subsets and naive cord blood CD4^+ T cells were further purified respectively as CD3^+CD4^+CD25^−CD45RO^−/+ and CD3^+CD4^+CD25^−HLA-DR^−CD45RA^+ by cell sorting on a FACSAria. […]
RNA was extracted by TRIZOL (Invitrogen) and cDNA was synthesized with Superscript II (Invitrogen) and random primers. cDNA was analyzed by real-time quantitative PCR in triplicates by using iQ CYBR Green Supermix (Bio-Rad) or QuantiTect Multiplex PCR mix (Qiagen) in the iCycler Sequence Detection System (Bio-Rad). The starting quantity (SQ) of the initial cDNA sample was calculated from primer-specific standard curves by using the iCycler Data Analysis Software. […] Fold changes were calculated by normalizing to the first sample of each set. Error bars were calculated based on triplicate measurements of each gene. […]

[3] = tested on: Naive cord blood CD4+ T cells; experiment: mRNA levels of Th17 markers (IL17, IL26, IL17F, RORC, RORA, IL23R) during Th17 cell differentiation of naive cord blood CD4+ T cells (real-time PCR); conditions: day 6; for IL-17F expression / IL-23R expression: cytokine alone (with IL-2)
Experimental: (§2) Blood samples were obtained from the New York Blood Center. Mononuclear cells were prepared from buffy coats of healthy adult donors or from cord blood on FicollPAQUE gradients. CD4^+ T cells were isolated on an autoMACS Pro using Miltenyi bead depletion of CD14^+ and CD25^+ cells followed by positive selection of CD4^+ cells. Cord blood CD4^+ T cells were >97% pure and 100% CD45RA^+ and were used as such for initial transduction experiments. Adult CD4^+ T cell subsets and naive cord blood CD4^+ T cells were further purified respectively as CD3^+CD4^+CD25^−CD45RO^−/+ and CD3^+CD4^+CD25^−HLA-DR^−CD45RA^+ by cell sorting on a FACSAria.
as §1
RNA was extracted by TRIZOL (Invitrogen) and cDNA was synthesized with Superscript II (Invitrogen) and random primers. cDNA was analyzed by real-time quantitative PCR in triplicates by using iQ CYBR Green Supermix (Bio-Rad) or QuantiTect Multiplex PCR mix (Qiagen) in the iCycler Sequence Detection System (Bio-Rad). The starting quantity (SQ) of the initial cDNA sample was calculated from primer-specific standard curves by using the iCycler Data Analysis Software. The expression level of each gene was normalized to beta-actin expression level using the standard curve method. Fold changes were calculated by normalizing to the first sample of each set. Error bars were calculated based on triplicate measurements of each gene. The primer sets for real-time PCR are detailed in Table 2.

[4] = tested on: naive CD45RO−CD25−CCR7+ T cells; experiment: IL-17 production in sorted adult blood naive CD4+ T cells cultured with or without IL-1β in serum-containing media (intracellular staining); conditions: day 6
Experimental: as §2
(§3) Cells were cultivated in either RPMI1640 (Invitrogen) supplemented with 10% fetal bovine serum (Hyclone), penicillin-streptomycin, 2 mM glutamine, 10 mM HEPES, 1 mM pyruvate and 0.1 mM non-essential amino acids or serum-free XVIVO-20 (Lonza) supplemented with penicillin-streptomycin in a 37° C. 5% CO2 incubator. […]
(§4) For intracellular cytokine staining, cells were incubated for 5 hours with 50 ng/ml PMA (Sigma), 500 ng/ml Ionomycin (Sigma), and GolgiStop (BD). […] Flow cytometric measures were performed on a LSR II (BD Biosciences) instrument and analyzed using FlowJo software (Tree Star Inc.). […]

[5] = tested on: memory CD45RO+CD25−CCR6+CD4+ T cells; experiment: IL-17 production in sorted adult blood memory CD4+ T cells cultured with or without IL-1β in serum-containing media (intracellular staining); conditions: day 6
Experimental: as §2, §3, §4

[6] = increasing concentration of TGF-β, day 6

soluble IL-21R: neutralizing soluble IL-21R (R&D) [reference compound]
effect on IL-17 expression ([1]; IL-23+IL-1β+IL-2+TGF-β, at levels that inhibited STAT3 phosphorylation, day 6): no effect

IL-6: cytokine, 10 ng/ml IL-6 (eBioscience)
effect on the suppression of IL-17 production induced by TGF-β [2]: partially relieved
increase of the proportion of IL-17-producing cells after forced expression of RORγT ([2]; day 6): about two-fold
suppression of TGF-β-induced FOXP3 expression ([1]; day 6): able to inhibit
induction of IL-17 ([1]; both IL-1β and TGF-β included, day 6): active, albeit not as strongly as IL-23
induction of IL-17 ([1]; combined with TGF-β alone): failed to induce

TGF-β: cytokine, TGF-β1 (PeproTech)
RORγT (RORC) expression (RORC): induced dose-dependent RORγT expression
effect on IL-17 production after forced expression of RORγT ([2]; various concentrations of TGF-β, day 6): potently suppressed
CCR6 cell surface expression ([1]; TGF-β alone, day 6): induced
FOXP3 expression [1, 6]: induced
IL-22 expression [1, 6]: progressively inhibited
RORA expression [3]: slightly induced
levels of IL-26 mRNA [3]: increased with the dose
RORC expression ([3]; increasing concentrations of TGF-β): gradually induced

IL-1β: cytokine, 10 ng/ml IL-1β (eBioscience)
effect on IL-17 production [4]: no effect
effect on the suppression of IL-17 production induced by TGF-β [2]: partially relieved
increase of the proportion of IL-17-producing cells after forced expression of RORγT ([2]; day 6): about two-fold
increase of IL-17 production [5]: two-fold
suppression of TGF-β-induced FOXP3 expression ([1]; day 6): not
IL-17F expression [3]: Some expression
IL-23R expression [3]: not

B1: IL-23: cytokine, 10 ng/ml IL-23 (eBioscience) (protein, UniProt Q9NPF7 20-189; P29460 23-328, looked up)
Interleukin-23 subunit alpha: RAVPGGSSPAWTQCQQLSQKLCTLAWSAHPLVGHMDLREEGDEETTNDVPHIQCGDGCDPQGLRDNSQFCLQRIHQGLIFYEKLLGSDIFTGEPSLLPDSPVGQLHASLLGLSQLLQPEGHHWETQQIPSLSPSQPWQRLLLRFKILRSLQAFVAVAARVFAHGAATLSP
Interleukin-12 subunit beta: IWELKKDVYVVELDWYPDAPGEMVVLTCDTPEEDGITWTLDQSSEVLGSGKTLTIQVKEFGDAGQYTCHKGGEVLSHSLLLLHKKEDGIWSTDILKDQKEPKNKTFLRCEAKNYSGRFTCWWLTTISTDLTFSVKSSRGSSDPQGVTCGAATLSAERVRGDNKEYEYSVECQEDSACPAAEESLPIEVMVDAVHKLKYENYTSSFFIRDIIKPDPPKNLQLKPLKNSRQVEVSWEYPDTWSTPHSYFSLTFCVQVQGKSKREKKDRVFTDKTSATVICRKNASISVRAQDRYYSSSWSEWASVPCS
suppression of TGF-β-induced FOXP3 expression ([1]; day 6): able to suppress
IL-17F expression [3]: no effect
IL-23R expression [3]: induced to some extent
